We go through 7 compounds from US20230276831A1, “Food/Beverage Article” (Kikkoman Corporation, priority 2020, published 2023).

In test [1] the test system is Lactobacillus fructivores (NBRC 13954). Put plainly: Antimicrobial action of oxygen-containing heterocyclic compounds in soy sauce (Test Example 7). To be noted: NBRC13954, 168 h, salt 4% (w/v), alcohol 5% (v/v); for activity at 0.1 ppm: test substance 0.1 ppm; for activity at 0.5 ppm: test substance 0.5 ppm; for activity at 1 ppm: test substance 1 ppm; for activity at 5 ppm: test substance 5 ppm; for activity at 25 ppm: test substance 25 ppm; for activity at 50 ppm: test substance 50 ppm. In kind it is cell-based. As for the experimental part: (§1) Commercially available whole soybean soy sauce (produced by Kikkoman Corporation) was electrodialyzed and then concentrated under reduced pressure to produce soy sauce at a salt concentration of 0% (w/v) and an alcohol concentration of 0% (v/v). Then, salt and/or alcohol was added to the above-mentioned obtained soy sauce, and the mixture was then heat-treated to produce soy sauce at a salt concentration of 4% (w/v) and an alcohol concentration of 5% (v/v).
The test substance described in Table 21 was added to the soy sauce produced in Test Example 6 to concentrations of 0.1 ppm, 0.5 ppm, 1 ppm, 5 ppm, 25 ppm, and 50 ppm. Lactic acid bacteria (Lactobacillus fructivores (NBRC 13954)) were then added to 10^4 to 10^5 cells/mL and cultured at 30° C. for 7 days. After the culture, the number of lactic acid bacteria was measured using Difco Lactobacilli MRS Agar. Soy sauce to which the test substance was not added was used as a control group, and the antimicrobial activity was evaluated in comparison with the number of lactic acid bacteria in the control group. The evaluation was performed using the following criterion.
• A: The bacterial count decreases to less than 10% of the bacterial count of a control group. • B: The bacterial count decreases to 10% or more and less than 50% of the bacterial count of the control group. • C: The bacterial count decreases to 50% or more and less than 100% of the bacterial count of the control group. • D: The bacterial count is the same as the bacterial count of the control group.

The subject of test [2] is Lactobacillus rennini (DSM 20253). As to the kind of experiment: Antimicrobial action of oxygen-containing heterocyclic compounds in soy sauce (Test Example 6). In kind it is cell-based. Further details: key to Antimicrobial activity: A: The bacterial count decreases to less than 10% of the bacterial count of the control group.; B: The bacterial count decreases to 10% or more and less than 50% of the bacterial count of the control group.; C: The bacterial count decreases to 50% or more and less than 100% of the bacterial count of control group.; D: The bacterial count is the same as the bacterial count of the control group. To be noted: salt 4% (w/v), alcohol 5% (v/v); for activity at 1 ppm / activity at 5 ppm / activity at 10 ppm / activity at 25 ppm / activity at 50 ppm / activity at 100 ppm: Loigolactobacillus rennini, DSM20253, 168 h; for activity at 1 ppm / Antimicrobial activity: test substance 1 ppm; for activity at 5 ppm: test substance 5 ppm; for activity at 10 ppm: test substance 10 ppm; for activity at 25 ppm: test substance 25 ppm; for activity at 50 ppm: test substance 50 ppm; for activity at 100 ppm: test substance 100 ppm. The protocol:
as §1
The test substance described in Table 20 was added to the above-mentioned produced soy sauce to concentrations of 1 to 100 ppm. Lactic acid bacteria (Lactobacillus rennini (DSM 20253)) were then added to 10^6 to 10^7 cells/mL and cultured at 30° C. for 7 days. After the culture, the number of lactic acid bacteria was measured using the GAM agar medium “Nissui”. Soy sauce to which licoricidin was not added was used as a control group, and the antimicrobial activity was evaluated in comparison with the number of lactic acid bacteria in the control group. The evaluation was performed using the criterion shown below.
• A: The bacterial count decreases to less than 10% of the bacterial count of the control group. • B: The bacterial count decreases to 10% or more and less than 50% of the bacterial count of control group. • C: The bacterial count decreases to 50% or more and less than 100% of the bacterial count of the control group. • D: The bacterial count is the same as the bacterial count of the control group. • -: Not evaluated

As for `COc1cc2oc(-c3ccc(O)cc3O)cc2c(OC)c1CC=C(C)C` [Gancaonin I, 5-(3-methyl-2-butenyl)-2-(2,4-dihydroxyphenyl)-4,6-dimethoxybenzofuran], in test [1], the activity at 0.1 ppm is 10 to 50%, the activity at 0.5 ppm was in the range of 50 to 100%, the activity at 1 ppm is 10 to 50% and the activity at 5 ppm was in the range of 50 to 100%. In test [1], the activity at 25 ppm lay in the range of 10 to 50% and the activity at 50 ppm was < 10%. In test [2], the activity at 1 ppm was 50 to 100%, the activity at 5 ppm was < 10%, the activity at 10 ppm is < 10% and the activity at 25 ppm is < 10%. For the same compound, in test [2], the activity at 50 ppm was < 10% and the activity at 100 ppm is < 10%.
With `COc1c(CC=C(C)C)c(O)cc2oc(=O)c(-c3ccc(O)cc3O)cc12` [Glycycoumarin, 3-(2,4-dihydroxyphenyl)-7-hydroxy-5-methoxy-6-(3-methyl-2-butenyl)-2H-1-benzopyran-2-one], in test [1], the activity at 0.1 ppm lay in the range of 10 to 50%, the activity at 0.5 ppm lay within 10 to 50%, the activity at 1 ppm lay within 10 to 50% and the activity at 5 ppm was 10 to 50%. In test [1], the activity at 25 ppm is < 10% and the activity at 50 ppm is < 10%. Further, in test [2], the activity at 5 ppm was in the range of 10 to 50%, the activity at 10 ppm was in the range of 10 to 50%, the activity at 25 ppm is < 10% and the activity at 50 ppm was < 10%. Besides, in test [2], the activity at 100 ppm is < 10% and the Antimicrobial activity result is recorded as “D”.
For `CC(C)=CCc1cc(-c2coc3cc(O)c(CC=C(C)C)c(O)c3c2=O)cc(O)c1O` [Isoangustone A, 3-[3,4-dihydroxy-5-(3-methyl-2-butenyl)phenyl]-5,7-dihydroxy-6-(3-methyl-2-butenyl)-4H-chromen-4-one], in test [1], the activity at 0.1 ppm was in the range of 10 to 50%, the activity at 0.5 ppm lay within 10 to 50%, the activity at 1 ppm was 50 to 100% and the activity at 5 ppm is 10 to 50%. Also, in test [1], the activity at 25 ppm is < 10% and the activity at 50 ppm is < 10%. Moreover, in test [2], the activity at 1 ppm fell in the range of 10 to 50%, the activity at 5 ppm is < 10%, the activity at 10 ppm was < 10% and the activity at 25 ppm is < 10%. For the same compound, in test [2], the activity at 50 ppm was < 10% and the activity at 100 ppm is < 10%.
Consider `C=CC(C)(C)c1c(O)cc(OC)c2cc(-c3ccc(O)cc3O)c(=O)oc12` [Licoarylcoumarin, 3-(2,4-dihydroxyphenyl)-7-hydroxy-5-methoxy-8-(2-methyl-3-butene-2-yl)coumarin], for which, in test [1], the activity at 0.1 ppm lay in the range of 10 to 50%, the activity at 0.5 ppm was in the range of 10 to 50%, the activity at 1 ppm lay within 10 to 50% and the activity at 5 ppm fell in the range of 50 to 100%. For the same compound, in test [1], the activity at 25 ppm was 10 to 50% and the activity at 50 ppm was 10 to 50%. For the same compound, in test [2], the activity at 5 ppm lay in the range of 50 to 100%, the activity at 10 ppm lay within 50 to 100%, the activity at 25 ppm lay within 10 to 50% and the activity at 50 ppm was 10 to 50%. In test [2], the activity at 100 ppm was < 10% and the Antimicrobial activity result is given as “D”.
Turning to `CC(C)=CCc1c(O)c(CC=C(C)C)c2occ(-c3ccc(O)cc3)c(=O)c2c1O` [8-(γ,γ-dimethylallyl)-wighteone, 6,8-bis(3-methyl-2-butenyl)-3-(4-hydroxyphenyl)-5,7-dihydroxy-4H-1-benzopyran-4-one], in test [1], the activity at 0.1 ppm was 10 to 50%, the activity at 0.5 ppm lay within 10 to 50%, the activity at 1 ppm was in the range of 10 to 50% and the activity at 5 ppm was < 10%. Further, in test [1], the activity at 25 ppm is < 10% and the activity at 50 ppm is < 10%. In test [2], the activity at 1 ppm lay within 50 to 100%, the activity at 5 ppm was < 10%, the activity at 10 ppm was < 10% and the activity at 25 ppm is < 10%. Further, in test [2], the activity at 50 ppm was < 10% and the activity at 100 ppm was < 10%.
Take `COc1c(CC=C(C)C)c(O)cc2c1C[C@H](c1ccc(O)cc1O)CO2` [Glyasperin C, (3R)-3β(2,4-dihydroxyphenyl)-5-methoxy-6-(3-methyl-2-butenyl)-3,4-dihydro-2H-1-benzopyran-7-ol]: in test [1], the activity at 0.1 ppm was 10 to 50%, the activity at 0.5 ppm was in the range of 10 to 50%, the activity at 1 ppm is 10 to 50% and the activity at 5 ppm was in the range of 10 to 50%. Besides, in test [1], the activity at 25 ppm is 10 to 50% and the activity at 50 ppm was < 10%. Further, in test [2], the activity at 1 ppm was in the range of 10 to 50%, the activity at 5 ppm was 10 to 50%, the activity at 10 ppm is 10 to 50% and the activity at 25 ppm is < 10%. Besides, in test [2], the activity at 50 ppm is < 10% and the activity at 100 ppm was < 10%.
In the case of `COc1cc2oc(=O)c(-c3ccc(O)cc3O)cc2c(OC)c1CC=C(C)C` [Glycyrin, 3-(2,4-dihydroxyphenyl)-5,7-dimethoxy-6-(3-methyl-2-butenyl)-2H-1-benzopyran-2-one], in test [1], the activity at 0.1 ppm lay in the range of 10 to 50%, the activity at 0.5 ppm is 10 to 50%, the activity at 1 ppm lay within 10 to 50% and the activity at 5 ppm lay in the range of 10 to 50%. Besides, in test [1], the activity at 25 ppm is 10 to 50% and the activity at 50 ppm lay within 10 to 50%. In test [2], the activity at 5 ppm lay within 10 to 50%, the activity at 10 ppm lay in the range of 10 to 50%, the activity at 25 ppm is < 10% and the activity at 50 ppm is < 10%. Moreover, in test [2], the activity at 100 ppm is < 10% and the Antimicrobial activity result was “D”.
